Data reported in patent publication US5206223A, “Method for inhibiting heparanase activity” (Yeda Research and Development Co. Ltd., priority 1986, dated 1993).
“Also recorded” adds a separate entry of the source.

Assays:
[1] = tested on: adjuvant arthritis; test: Adjuvant arthritis induced with M. tuberculosis; type: in vivo, Lewis rats; conditions: for Inhibition of arthritis / Arthritis score (day 60): rat, in vivo; for Arthritis score (day 60): sc
[2] = tested on: heparanase; test: Inhibition of T lymphocyte heparanase activity (degradation of 35S-labeled heparan sulfate of extracellular matrix); type: biochemical; conditions: medium of activated T lymphocytes, 35S-labeled extracellular matrix, various concentrations
Procedure: Heparanase activity was induced into the extracellular medium bathing activated T lymphocytes and tested by incubating the medium with extracellular matrix whose heparan sulfate was labeled with ^35 S as described (Naparstek, Y., Cohen, I. R., Fuks, Z. and I. Vlodavsky. Activated T lymphocytes produce a matrix-degrading heparan sulphate endoglycosidase. Nature 310:241 (1984)). Inhibition of heparanase activity was tested by adding various concentrations of heparin or modified heparins to the reaction mixture and measuring the effect on degradation of the labeled heparin-sulfate as described (Naparstek, Y., Cohen, I. R., Fuks, Z. and I. Vlodavsky.
Activated T lymphocytes produce a matrix-degrading heparan sulphate endoglycosidase, Nature 310:241 (1984)). Totally desulfated heparin and N-desulfated, N-acetylated heparin was prepared as described. (Ayotte, L., A. S. Perlin. NMR spectroscopic observations related to the function of sulfate groups in heparin. Calcium binding vs. biological activity. Carbohydrate Res. 145:267 (1986)).

[3] = tested on: skin allografts; test: Skin allograft survival (SJL/J skin on (BALB/c×C57BL/6)F1 mice); type: in vivo; conditions: 10 mg/kg daily, saline control 10 days
Procedure: FIG. 1. Treatment with heparin (0.05 mg/kg) prevents rejection of skin allografts. Mice of hybrid strain (BALB/c×C57BL/6)F1 were grafted with skin from allogeneic SJL/J mice. The mice (20 per group) were treated daily with subcutaneous injections of saline (squares) or with heparin ("Leo", 0.05 mg/kg; diamonds) and scored for skin graft survival. Median survival for the control group was 10 days while that for the heparin treated group was 24 days.
FIG. 2. Treatment with N-desulfated, N-acetylated heparin (10 mg/kg) prevents rejection of skin allografts. Mice were grafted as described for FIG. 1 and treated daily with saline (squares) or N-desulfated, N-acetylated heparin (10 mg/kg; diamonds). The median survival of the skin allograft in the control group was 10 days while that in the treated group was 20 days.
The median survival time of the skin grafts on control mice treated with saline was […] while that on mice treated with 0.05 mg/kg daily of heparin was 26 days with maximal survival to 32 days.

[4] = tested on: experimental autoimmune encephalomyelitis (EAE); test: Experimental autoimmune encephalomyelitis (EAE) produced by anti-BP T lymphocytes; type: in vivo, Lewis rats; conditions: 10 mg/kg daily
Text: EAE is an experimental autoimmune disease with some features reminiscent of multiple sclerosis in humans. The disease is caused by T lymphocytes immunized to the basic protein (BP) of the central nervous system myelin. To test the effect of heparins on the ability of T lymphocytes to cause autoimmune disease, we used T lymphocytes sensitized against BP, either as T cell lines (Cohen, I. R. Experimental autoimmune encephalomyelitis: Pathogenesis and prevention. In: Immunoregulatory Processes in Multiple Sclerosis and Experimental Allergic Encephalomyelitis. A. A. Vandenbark and J. C. M. Raus, eds. Elsevier Biomedical Res. Amsterdam. 7:91-125 (1985)) or as populations of lymph node cells from BP immunized rats.
EAE was produced by inoculating Lewis rats with a T cell line of anti-BP T lymphocytes (10^6 cells) with anti-BP primed lymph node cells (10^7 cells) intravenously (Cohen, I. R. Experimental autoimmune encephalomyelitis: Pathogenesis and prevention. In: Immunoregulatory Processes in Multiple Sclerosis and Experimental Allergic Encephalomyelitis. A. A. Vandenbark and J. C. M. Raus, eds. Elsevier Biomedical Res. Amsterdam. 7:91-125 (1985)) One day before inoculation and daily for 10 days, the rats received either saline or the heparins.

[5] = tested on: activated T lymphocytes; test: Traffic of 51Cr-labeled lymphocytes from subcutaneous site and in blood; type: in vivo; conditions: rats or mice
Text: To test the effect of modified heparin on T lymphocyte traffic, we labelled the lymphocytes with ^51 Cr and measured the uptake of the labeled lymphocytes from a subcutaneous site and their persistence in the blood.
Furthermore, treatment with the modified heparin led to persistence of labeled lymphocytes in the blood for 4-5 days, while the untreated rats or mice cleared the labeled lymphocytes from the blood in 1 day. Thus, treatment with modified heparin inhibited the ability of T lymphocytes to enter the blood vessels, and once in the blood vessels, prevented the T lymphocytes from exiting. This can be attributed to inhibition of the heparanase enzyme activity needed to penetrate the extracellular matrix of the vessel wall.

[6] = rat, in vivo, 10 mg/kg

Substance | Inhibition of arthritis [1] | Arthritis score (day 60) [1] | Inhibition of degradation of heparan sulfate by heparanase [2] | Median survival of skin allograft [3] [days] | Duration of EAE ([4]; A: T cell line, None 4.2) [days] | Day of onset of EAE ([4]; A: T cell line, None 5.2) | % incidence of EAE ([4]; A: T cell line, None 100) [%] | Clinical score of EAE ([4]; A: T cell line, scale 1-4, None 2.4) | % incidence of EAE ([4]; C: primed lymph node cells, None 80) [%] | Inhibition of adjuvant arthritis (FIG. 4) ([1]; 0.02 mg per rat (0.1 mg/kg) s.c. once daily from day 9, 0.1 mg/kg) | Inhibition of adjuvant arthritis (FIG. 4) ([1]; 0.04 mg s.c. once daily from day 9) | Histologic examination of the joints ([1]; 0.1 mg/kg/day from day 21 to 51, control rats severe signs of inflammation) | Remission of established adjuvant arthritis (FIG. 5) ([1]; 0.1 mg/kg/day s.c. from day 21 to 51) | Persistence of labeled lymphocytes in the site of injection into the tail ([5]; 0.05 mg/kg, control 1-2 days) [days] | Persistence of labeled lymphocytes in the blood ([5]; untreated cleared in 1 day) [days] | Anti-coagulant effect (prothrombin time) [6]
N-desulfated heparin | no | 5 | – | – | – | – | – | – | – | – | – | – | – | – | – | –
N-desulfated, N-acetylated heparin | yes | 0 | yes | 20 | 1.8 | 6.4 | 50 | 0.8 | 0 | significant inhibition of arthritis; also recorded: maximum effect | ineffective | healthy joints | early remission of established adjuvant arthritis | 5 to 6 | 4 to 5 | no anti-coagulant effect
O-desulfated, N-acetylated heparin | yes | 0 | – | – | – | – | – | – | – | – | – | – | – | – | – | –
totally desulfated heparin [Heparin: totally desulfated] | no | 5 | no | – | – | – | – | – | – | – | – | – | – | – | – | –
